For one test, the system named is HFF. The test can be described thus: Antiviral activity against human cytomegalovirus (Davis strain) grown on human foreskin fibroblast cells determined by reduction in plaque formation upon incubation at 37 degrees C with the compound dissolved in DMSO. It counts as functional, cell-based.
For test [1], the target named is T1, DNA polymerase delta catalytic subunit (Homo sapiens, UniProt P28340).
T1 sequence (P28340 whole entry): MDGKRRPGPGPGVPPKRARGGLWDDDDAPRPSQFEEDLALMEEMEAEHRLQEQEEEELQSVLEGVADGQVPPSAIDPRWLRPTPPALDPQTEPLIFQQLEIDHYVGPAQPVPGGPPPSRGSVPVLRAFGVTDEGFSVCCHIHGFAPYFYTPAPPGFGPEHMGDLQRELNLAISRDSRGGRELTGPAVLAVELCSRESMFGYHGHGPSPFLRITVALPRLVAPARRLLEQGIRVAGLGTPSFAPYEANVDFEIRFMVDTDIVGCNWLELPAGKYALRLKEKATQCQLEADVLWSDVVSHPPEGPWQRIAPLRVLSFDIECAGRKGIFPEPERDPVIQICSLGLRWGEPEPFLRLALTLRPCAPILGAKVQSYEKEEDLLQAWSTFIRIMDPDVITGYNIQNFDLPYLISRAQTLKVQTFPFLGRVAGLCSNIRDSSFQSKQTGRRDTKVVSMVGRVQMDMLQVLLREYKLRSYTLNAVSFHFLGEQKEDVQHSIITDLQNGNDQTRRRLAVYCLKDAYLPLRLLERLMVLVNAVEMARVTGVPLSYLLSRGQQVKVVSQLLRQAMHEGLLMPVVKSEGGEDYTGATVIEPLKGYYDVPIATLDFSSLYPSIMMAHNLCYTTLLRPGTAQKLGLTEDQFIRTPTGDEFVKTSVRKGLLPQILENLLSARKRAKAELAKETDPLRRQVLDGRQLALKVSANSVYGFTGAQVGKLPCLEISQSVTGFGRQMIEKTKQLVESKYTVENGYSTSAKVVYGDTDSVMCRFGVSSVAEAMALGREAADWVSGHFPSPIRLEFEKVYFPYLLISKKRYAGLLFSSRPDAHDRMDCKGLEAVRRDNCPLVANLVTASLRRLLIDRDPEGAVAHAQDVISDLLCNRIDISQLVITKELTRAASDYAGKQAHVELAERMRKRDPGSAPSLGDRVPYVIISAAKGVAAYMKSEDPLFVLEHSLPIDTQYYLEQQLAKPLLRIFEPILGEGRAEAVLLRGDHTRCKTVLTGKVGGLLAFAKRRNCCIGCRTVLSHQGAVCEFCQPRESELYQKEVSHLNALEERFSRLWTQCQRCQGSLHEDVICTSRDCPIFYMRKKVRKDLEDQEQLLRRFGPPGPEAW
As to the kind of experiment: Inhibition of human delta DNA polymerase (95 uL) activity in a solution containg […] HEPES (pH 7.5) upon incubation for 12 minutes at 26 degrees C with the compound dissolved in DMSO.

The target in test [2] is T2, DNA polymerase catalytic subunit (Varicella-zoster virus (strain Dumas) (HHV-3) (Human herpesvirus 3), UniProt P09252).
T2 sequence (P09252 whole entry): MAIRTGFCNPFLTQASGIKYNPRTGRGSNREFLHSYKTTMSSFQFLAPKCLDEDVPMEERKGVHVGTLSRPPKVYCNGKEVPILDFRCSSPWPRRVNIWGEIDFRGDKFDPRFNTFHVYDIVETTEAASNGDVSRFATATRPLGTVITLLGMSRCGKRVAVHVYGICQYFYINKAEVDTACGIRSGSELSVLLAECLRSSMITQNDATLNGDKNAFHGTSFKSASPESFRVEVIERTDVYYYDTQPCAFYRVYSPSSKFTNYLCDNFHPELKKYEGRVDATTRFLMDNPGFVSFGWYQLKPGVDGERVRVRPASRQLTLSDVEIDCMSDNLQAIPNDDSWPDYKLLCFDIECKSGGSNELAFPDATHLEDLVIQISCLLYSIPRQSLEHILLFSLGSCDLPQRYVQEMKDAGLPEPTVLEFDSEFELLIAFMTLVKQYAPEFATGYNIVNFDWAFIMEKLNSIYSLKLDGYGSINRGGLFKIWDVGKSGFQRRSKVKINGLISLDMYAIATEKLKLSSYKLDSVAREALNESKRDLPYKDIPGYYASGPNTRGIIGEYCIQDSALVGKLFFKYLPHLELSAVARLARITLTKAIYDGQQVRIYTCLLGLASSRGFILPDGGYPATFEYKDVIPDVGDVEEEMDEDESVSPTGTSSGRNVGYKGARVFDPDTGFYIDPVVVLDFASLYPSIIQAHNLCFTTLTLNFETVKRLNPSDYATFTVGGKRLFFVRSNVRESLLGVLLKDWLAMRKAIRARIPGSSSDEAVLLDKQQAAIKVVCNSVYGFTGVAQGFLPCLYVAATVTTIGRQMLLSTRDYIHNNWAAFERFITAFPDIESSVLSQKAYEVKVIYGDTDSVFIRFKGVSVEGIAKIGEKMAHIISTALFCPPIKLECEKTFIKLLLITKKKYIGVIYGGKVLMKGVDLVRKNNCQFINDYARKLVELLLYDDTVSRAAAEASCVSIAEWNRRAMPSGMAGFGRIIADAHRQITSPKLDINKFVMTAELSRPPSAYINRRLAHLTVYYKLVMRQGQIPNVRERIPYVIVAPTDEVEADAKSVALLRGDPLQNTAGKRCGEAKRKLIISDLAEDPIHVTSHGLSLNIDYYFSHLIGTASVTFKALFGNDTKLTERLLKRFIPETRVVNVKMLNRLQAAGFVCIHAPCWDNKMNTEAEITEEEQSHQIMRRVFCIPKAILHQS
As to the kind of experiment: Inhibition of Varicella-Zoster virus DNA polymerase (95 uL) activity in a solution containing […] HEPES (pH 7.5), incubation for 12 minutes at 26 degrees C. Also noted: species or system Human alphaherpesvirus 3.

The values below come from ChEMBL document CHEMBL1141075, “4-Oxo-4,7-dihydrothieno[2,3-b]pyridines as non-nucleoside inhibitors of human cytomegalovirus and related herpesvirus polymerases” (J Med Chem, 2005).

For orientation: IC50 means the concentration at which inhibition is half-maximal. A higher IC50 goes with lower potency. `Cn1cc(C(=O)NCc2ccc(Cl)cc2)c(=O)c2cc(CN3CCOCC3)ccc21`: the IC50 with HFF was 900 nM; in test [1] it was more than 40000 nM.

On to `O=C(NCc1ccc(Cl)cc1)c1cnc2ccc(CCCO)cc2c1O`, for which the concentration for half-maximal inhibition (IC50) was 1000 nM with HFF, 70 nM in test [2] and more than 40000 nM in test [1].

Consider `Cn1cc(C(=O)NCc2ccc(Cl)cc2)c(=O)c2cc(CN3CCOCC3)sc21`, for which the IC50 in the test with HFF was 800 nM; in test [2], 770 nM; in test [1], more than 40000 nM.
